According to patent US20220040129A1, “TREATMENT OF HYPERAMMONEMIA IN PATIENTS WITH RENAL INSUFFICIENCY” (RECORDATI S.p.A., priority 2019, published 2022):
Where two headings read alike, the source gives them in different places.

What was measured:
[1] = molecular target: T1, CYP1A2 (Homo sapiens, UniProt P05177); format: in vitro ADME
T1 sequence (P05177 1-516): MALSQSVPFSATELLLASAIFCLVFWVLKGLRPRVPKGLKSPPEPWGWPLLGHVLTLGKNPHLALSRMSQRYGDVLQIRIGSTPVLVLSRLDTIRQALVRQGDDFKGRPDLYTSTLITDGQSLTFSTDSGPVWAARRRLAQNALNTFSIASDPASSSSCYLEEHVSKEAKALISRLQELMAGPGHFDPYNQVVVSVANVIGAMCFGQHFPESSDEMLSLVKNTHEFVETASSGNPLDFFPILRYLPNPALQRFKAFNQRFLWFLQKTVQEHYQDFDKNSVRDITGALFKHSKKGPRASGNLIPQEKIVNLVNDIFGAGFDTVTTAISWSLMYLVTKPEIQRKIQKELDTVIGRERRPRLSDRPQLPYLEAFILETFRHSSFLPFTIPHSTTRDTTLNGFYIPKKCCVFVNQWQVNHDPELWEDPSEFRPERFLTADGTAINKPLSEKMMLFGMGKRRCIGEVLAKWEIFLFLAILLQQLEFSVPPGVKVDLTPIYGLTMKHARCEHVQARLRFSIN

[2] = PK study comparing oral to IV CARBAGLU in 36 healthy volunteers; format: in vivo, human
[3] = Pharmacokinetics in healthy subjects after oral administration (radiolabeled and non-radiolabeled); format: in vivo, human; details: for half-life / CL renal: in vivo; for half-life / CL renal / Tmax: po
[4] = test system: plasma ammonia; assay: Retrospective review of NAGS deficiency patients: plasma ammonia levels; format: in vivo, human; details: for Plasma ammonia, Mean (SD) / Plasma ammonia, Median / Plasma ammonia, Range: NAGS deficiency patients
Protocol: Treatment with carglumic acid was divided in two regimens. For acute treatment, patients received a total daily dose of 100 mg/kg/day to 250 mg/kg/per day primarily administered in 2 to 4 divided doses for the first few days of treatment. For maintenance treatment, the dosage was reduced over time based on plasma ammonia level and clinical responses.
Short-term efficacy was evaluated using mean and median change in plasma ammonia levels from baseline to days 1 to 3. Persistence of efficacy was evaluated using long-term mean and median change in plasma ammonia level.
All 13 patients had abnormal plasma ammonia levels at baseline. […] Long-term efficacy was measured using the last reported plasma ammonia level for each of the 13 patients analyzed (median length of treatment was 6 years; range 1 to 16 years). The mean and median plasma ammonia levels were 23 micromol/L and 24 micromol/L, respectively, after a mean treatment duration of 8 years (Table 5).

[5] = single radiolabeled oral dose of 100 mg/kg
[6] = Long-term (mean 8 years), last available value on treatment

NC(=O)N[C@@H](CCC(=O)O)C(=O)O [carglumic acid, N-carbamoyl-L-glutamic acid]
Inhibition of CYP1A2 [1]: not an inhibitor | Mean fraction of the dose excreted in the urine ([2]; after IV administration): 90% | Mean fraction of the dose excreted in the urine ([2]; after oral administration): 7.5% | bioavailability ([2]; human, in vivo, oral vs IV, 36 healthy volunteers, read-out: Mean absolute bioavailability): 9.87% | 24-hour urinary excretion ([3]; after oral administration): 4.5 % of the dose | Apparent total clearance, median ([3]; after oral administration): 5.7 L/min | Apparent volume of distribution, median ([3]; after oral administration): 2657 L | Apparent volume of distribution, median per kg ([3]; after oral administration): 35.9 L/kg | Apparent volume of distribution, range ([3]; after oral administration): 1616 to 5797 L | half-life ([3]; human, after oral administration, read-out: Initial half-life (converted)): ~5.6 h | CL renal ([3]; human, after oral administration, read-out: Renal clearance, median): 290 mL/min | CL renal ([3]; human, after oral administration, read-out: Renal clearance, range): 204 to 445 mL/min | half-life ([3]; human, after oral administration, read-out: Terminal half-life (converted)): ~22 h | bioavailability ([3]; human, plasma, 100 mg/kg, oral, read-out: Absolute bioavailability): 9.9% | Tmax ([3]; human, plasma, read-out: Tmax, median): 3 h | Tmax ([3]; human, plasma, read-out: Tmax, range): 2 to 4 h | Dose excreted unchanged in the urine [3, 5]: 9 % of the dose | Dose recovered unchanged in the feces [3, 5]: up to 60 % of the dose | Differences in clinical response between adults and pediatric NAGS deficiency patients ([4]; 23 NAGS deficiency patients): no apparent differences | Plasma ammonia, Mean (SD) ([4]; Day 1 of treatment): 181 (358) micromole/L | Plasma ammonia, Median ([4]; Day 1 of treatment): 65 µmol/L | Plasma ammonia, Range ([4]; Day 1 of treatment): 25 to 1190 µmol/L | Plasma ammonia, Mean (SD) ([4]; Day 2 of treatment): 69 (78) micromole/L | Plasma ammonia, Median ([4]; Day 2 of treatment): 44 µmol/L | Plasma ammonia, Range ([4]; Day 2 of treatment): 11 to 255 µmol/L | Plasma ammonia, Mean (SD) ([4]; Day 3 of treatment): 27 (11) micromole/L | Plasma ammonia, Median ([4]; Day 3 of treatment): 25 µmol/L | Plasma ammonia, Range ([4]; Day 3 of treatment): 12 to 42 µmol/L | Plasma ammonia, Mean (SD) [4, 6]: 23 µmol/L | Plasma ammonia, Median [4, 6]: 24 µmol/L | Plasma ammonia, Range [4, 6]: 9 to 34 µmol/L | Plasma ammonia, Mean (SD) ([4]; Long-term (mean 8 years), last available value on treatment, listed as Carglumic Acid): 23 (7) micromole/L | Plasma ammonia levels by day 3 ([4]; patients for whom data were available, normal range 5 to 50 micromol/L): normal plasma ammonia levels were attained
